The results in this text go back to US6358961B1, “Farnesyltransferase inhibiting quinazolinones” (Jannsen-Cilag S.A., priority 1997, dated 2002).

The IC50 is the point on the concentration scale where inhibition reaches its midpoint. A higher IC50 goes with lower potency. As a reminder, the melting point is the temperature of the solid-liquid transition.

Series [1] deals with NIH 3T3 cells transformed by the T24 activated human H-ras gene. As to the kind of experiment: Ras-Transformed Cell Phenotype Reversion Assay. The series is classed as cell-based, mouse. As to conditions: NIH3T3; cell counts after 72 hours proliferation; test concentrations 5, 10, 50, 100 and 500 nM. From the text:
“Ras-Transformed Cell Phenotype Reversion Assay”
Insertion of activated oncogenes such as the mutant ras gene into mouse NIH 3T3 cells converts the cells to a transformed phenotype, The cells become tumorigenic, display anchorage independent growth in semi-solid medium and lose contact inhibition. Loss of contact inhibition produces cell cultures which no longer form uniform monolayers. Rather, the cells pile up into multicellular nodules and grow to very high saturation densities in plastic tissue culture dishes. Agents such as protein famesyl transferase inhibitors which revert the ras transformed phenotype restore the uniform monolayer growth pattern to cells in culture. This reversion is easily monitored by counting the number of cells in tissue culture plates. Transformed cells will achieve higher cell numbers than cells which have reverted to an untransformed phenotype. Compounds which revert the transformed phenotype should produce antitumor effects in tumors bearing ras gene mutations.
Compounds are screened in tissue culture in NIH 3T3 cells transformed by the T24 activated human H-ras gene. […] Then the cells are detached in 1.0 ml trypsin-EDTA cell dissociation medium and counted on a Coulter particle counter.
Cell numbers expressed as cells per well are measured using a Coulter Particle Counter. […]

In the case of `CN1C(=O)NC(c2cccc(Cl)c2)c2cc(C(c3ccc(Cl)cc3)c3cncn3C)ccc21` (racemic) [Compound 14, (±)-4-(3-chlorophenyl)-6-[(4-chlorophenyl)(1-methyl-1H-imidazol-5-yl)methyl]-3,4-dihydro-1-methyl-2(1H)-quinazolinone], the IC50 in series [1] was < 500 nM.

Compound `O=C1Nc2ccc(C(c3ccc(Cl)cc3)n3ccnc3)cc2C(c2cccc(Cl)c2)N1` (racemic) [Compound 8, (±)-4-(3-chlorophenyl)-6-[(4-chlorophenyl)-1H-imidazol-1-ylmethyl]-3,4-dihydro-2(1H)-quinazolinone] gave a melting point of 177.1 °C. The same measure, in the same setting: to `O=c1nc(-c2cccc(Cl)c2)c2cc(C(c3ccc(Cl)cc3)n3ccnc3)ccc2n1Cc1ccncc1` (racemic) [Compound 3, (±)-4-(3-chlorophenyl)-6-[(4-chlorophenyl)-1H-imidazol-1-ylmethyl]-1-(4-pyridinylmethyl)-2(1H)-quinazolinone] belongs 61.4 °C. On to `O=c1nc(-c2cccc(Cl)c2)c2cc(C(c3ccc(Cl)cc3)n3ccnc3)ccc2[nH]1` (racemic) [Compound 1, (±)-4-(3-chlorophenyl)-6[(4-chlorophenyl)-1H-imidazol-1-ylmethyl]-2(1H)-quinazolinone], for which the melting point turned out to be 255.1 °C.
